Reference: ChEMBL document CHEMBL1137808, “Biologically active proteins from natural product extracts” (J Nat Prod, 2001)
In brackets after ≈: the same amount, converted by molar mass. Bridge positions count the residues as written; N and C are the ends. Peptide text beside a SMILES is read from it.

Test system: Human immunodeficiency virus 1
Assay: Antiviral activity against HIV1
Assay type: functional, organism-based
Settings: not given

Row | EC50 [nM] | SMILES
1 | 40 | CC[C@H](C)[C@@H]1NC(=O)[C@@H]2CSSC[C@@H]3NC(=O)[C@H](C(C)C)NC(=O)[C@H](CCCCN)NC(=O)[C@H](CC(N)=O)NC(=O)[C@H](CCCCN)NC(=O)[C@@H]4CSSC[C@H](NC(=O)[C@H](CO)NC(=O)[C@H](CCC(=O)O)NC(=O)CNC(=O)[C@H](CSSC[C@H](NC(=O)CNC(=O)[C@H](CC(C)C)NC(=O)[C@H](C)NC(=O)[C@H](C)NC(=O)[C@H](CO)NC1=O)C(=O)N[C@@H](CO)C(=O)N4)NC(=O)[C@@H]1CCCN1C(=O)[C@H]([C@@H](C)CC)NC(=O)CNC(=O)[C@H](CC(N)=O)NC(=O)[C@H](CCCNC(=N)N)NC(=O)[C@H](Cc1ccc(O)cc1)NC3=O)C(=O)N[C@@H](C(C)C)C(=O)N[C@@H](Cc1c[nH]c3ccccc13)C(=O)N[C@@H]([C@@H](C)CC)C(=O)N1CCC[C@H]1C(=O)N2 [CIRCULIN A] (cyclo(AALGCSCKNKVCYRNGIPCGESCVWIPCIS); disulfide 5-19, 7-23, 12-28)
2 | 40 | CC[C@H](C)[C@@H]1NC(=O)[C@@H]2CSSC[C@@H]3NC(=O)[C@H](C(C)C)NC(=O)[C@H](CCCCN)NC(=O)[C@H](CC(N)=O)NC(=O)[C@H](CCCCN)NC(=O)[C@@H]4CSSC[C@H](NC(=O)[C@H](CO)NC(=O)[C@H](CCC(=O)O)NC(=O)CNC(=O)[C@H](CSSC[C@H](NC(=O)CNC(=O)[C@H](CC(C)C)NC(=O)[C@H](CC(C)C)NC(=O)[C@H]([C@@H](C)O)NC(=O)[C@H](CO)NC1=O)C(=O)N[C@@H](CO)C(=O)N4)NC(=O)[C@@H]1CCCN1C(=O)[C@H]([C@@H](C)CC)NC(=O)[C@H](C(C)C)NC(=O)CNC(=O)[C@H](CC(N)=O)NC(=O)[C@H](CCCNC(=N)N)NC(=O)[C@H](Cc1ccc(O)cc1)NC3=O)C(=O)N[C@@H](C(C)C)C(=O)N[C@@H](Cc1ccccc1)C(=O)N[C@@H]([C@@H](C)CC)C(=O)N1CCC[C@H]1C(=O)N2 [CIRCULIN B] (cyclo(CGESCVFIPCISTLLGCSCKNKVCYRNGVIP); disulfide 1-17, 5-19, 10-24)
3 | 40 | CC[C@H](C)[C@@H]1NC(=O)[C@@H]2CSSC[C@@H]3NC(=O)[C@H](C(C)C)NC(=O)[C@H](CCCCN)NC(=O)[C@H](CO)NC(=O)[C@H](CCCCN)NC(=O)[C@@H]4CSSC[C@H](NC(=O)[C@H](CO)NC(=O)[C@H](CCC(=O)O)NC(=O)CNC(=O)[C@H](CSSC[C@H](NC(=O)CNC(=O)[C@H](C)NC(=O)[C@H](C(C)C)NC(=O)[C@H](CO)NC(=O)[C@H]([C@@H](C)O)NC1=O)C(=O)N[C@@H](CO)C(=O)N4)NC(=O)[C@@H]1CCCN1C(=O)[C@H]([C@@H](C)CC)NC(=O)CNC(=O)[C@H](CC(N)=O)NC(=O)[C@H](CCCNC(=N)N)NC(=O)[C@H](Cc1ccc(O)cc1)NC3=O)C(=O)N[C@@H](C(C)C)C(=O)N[C@@H](Cc1ccccc1)C(=O)N[C@@H]([C@@H](C)CC)C(=O)N1CCC[C@H]1C(=O)N2 [CIRCULIN C] (cyclo(AGCSCKSKVCYRNGIPCGESCVFIPCITSV); disulfide 3-17, 5-21, 10-26)
4 | 40 | CC[C@H](C)[C@@H]1NC(=O)[C@H](CO)NC(=O)[C@H]([C@@H](C)O)NC(=O)[C@H](Cc2ccc(O)cc2)NC(=O)[C@@H]2CSSC[C@@H]3NC(=O)[C@H](C(C)C)NC(=O)[C@H](CCCCN)NC(=O)[C@H](CC(N)=O)NC(=O)[C@H](CCC(=O)O)NC(=O)[C@@H]4CSSC[C@H](NC(=O)[C@H](CO)NC(=O)[C@H](CCC(=O)O)NC(=O)CNC(=O)[C@H](CSSC[C@H](NC(=O)[C@H](CC(N)=O)NC(=O)[C@H](Cc5ccccc5)NC1=O)C(=O)N[C@@H](CCCCN)C(=O)N4)NC(=O)[C@@H]1CCCN1C(=O)[C@H]([C@@H](C)CC)NC(=O)[C@H](CCCCN)NC(=O)[C@H](CC(=O)O)NC(=O)[C@H](Cc1cnc[nH]1)NC(=O)[C@H](Cc1ccc(O)cc1)NC3=O)C(=O)N[C@@H](C(C)C)C(=O)N[C@@H](Cc1c[nH]c3ccccc13)C(=O)N[C@@H]([C@@H](C)CC)C(=O)N1CCC[C@H]1C(=O)N2 [CIRCULIN D] (cyclo(CENKVCYHDKIPCGESCVWIPCYTSIFNCK); disulfide 1-17, 6-22, 13-29)
5 | 40 | CC[C@H](C)[C@@H]1NC(=O)[C@H](CCCCN)NC(=O)[C@H](CC(=O)O)NC(=O)[C@H](Cc2cnc[nH]2)NC(=O)[C@H](Cc2ccc(O)cc2)NC(=O)[C@@H]2CSSC[C@@H]3NC(=O)[C@@H]4CCCN4C(=O)[C@H]([C@@H](C)CC)NC(=O)[C@H](Cc4c[nH]c5ccccc45)NC(=O)[C@H](C(C)C)NC(=O)[C@@H]4CSSC[C@H](NC(=O)[C@H](CCCCN)NC(=O)[C@H](CSSC[C@H](NC(=O)[C@@H]5CCCN5C1=O)C(=O)NCC(=O)N[C@@H](CCC(=O)O)C(=O)N[C@@H](CO)C(=O)N4)NC(=O)[C@H](CC(N)=O)NC(=O)[C@H](Cc1ccccc1)NC(=O)[C@H](C(C)C)NC(=O)[C@H](CO)NC(=O)[C@H]([C@@H](C)O)NC(=O)[C@H](CC(C)C)NC3=O)C(=O)N[C@@H](CCC(=O)O)C(=O)N[C@@H](CC(N)=O)C(=O)N[C@@H](CCCCN)C(=O)N[C@@H](C(C)C)C(=O)N2 [CIRCULIN E] (cyclo(CENKVCYHDKIPCGESCVWIPCLTSVFNCK); disulfide 1-17, 6-22, 13-29)
6 | 40 | CC[C@H](C)[C@@H]1NC(=O)[C@H](C)NC(=O)[C@H](C)NC(=O)[C@H](CO)NC(=O)[C@H]([C@@H](C)CC)NC(=O)[C@@H]2CSSC[C@@H]3NC(=O)[C@H](C(C)C)NC(=O)[C@H](CCCCN)NC(=O)[C@H](CC(N)=O)NC(=O)[C@H](CCCCN)NC(=O)[C@@H]4CSSC[C@H](NC(=O)[C@H](CO)NC(=O)[C@H](CCC(=O)O)NC(=O)CNC(=O)[C@H](CSSC[C@H](NC(=O)CNC1=O)C(=O)N[C@@H](CO)C(=O)N4)NC(=O)[C@@H]1CCCN1C(=O)[C@H]([C@@H](C)CC)NC(=O)[C@H](C)NC(=O)[C@H](CCCNC(=N)N)NC(=O)[C@H](Cc1ccc(O)cc1)NC3=O)C(=O)N[C@@H](C(C)C)C(=O)N[C@@H](Cc1c[nH]c3ccccc13)C(=O)N[C@@H]([C@@H](C)CC)C(=O)N1CCC[C@H]1C(=O)N2 [CIRCULIN F] (cyclo(AAIGCSCKNKVCYRAIPCGESCVWIPCIS); disulfide 5-18, 7-22, 12-27)

Test system: Human immunodeficiency virus
Assay: Antiviral activity against HIV infected in human MOLT4 cells assessed as inhibition of virus-induced cytopathic effect
Assay type: functional, organism-based
Settings: Human immunodeficiency virus 1, MOLT-4

Row | EC50 [ng/mL] | SMILES
7 | 8 (≈ 3.3 nM) | CC(C)[C@@H]1NC(=O)[C@H](CCCNC(=N)N)NC(=O)[C@H](Cc2ccccc2)NC(=O)[C@@H](NC(=O)[C@H](Cc2c[nH]c3ccccc23)NC(=O)[C@H](CCCNC(=N)N)NC(=O)[C@@H](N)CCCNC(=N)N)CSSC[C@@H]2NC(=O)[C@H](Cc3ccccc3)NC(=O)CNC(=O)[C@H](CCCCN)NC(=O)[C@H](Cc3ccc(O)cc3)NC(=O)[C@H](CSSC[C@@H](C(=O)N[C@@H](CCCNC(=N)N)C(N)=O)NC(=O)[C@H](CCCCN)NC(=O)[C@H](CCCNC(=N)N)NC(=O)[C@H](Cc3ccc(O)cc3)NC2=O)NC1=O [POLYPHEMUSIN II] (H-RRWCFRVCYKGFCYRKCR-NH2; disulfide 4-13, 8-17)
